From ChEMBL document CHEMBL2169787, “The biology and chemistry of antifungal agents: a review” (2012)
≈ marks a conversion by molar mass, not a printed value.

Experiments:
Type in all cases: functional
[1] = system: Candida albicans; test: Antifungal activity against Candida albicans; details: for MIC: Candida albicans
[2] = system: Cryptococcus neoformans; test: Antifungal activity against Cryptococcus neoformans
[3] = system: Candida parapsilosis; test: Antifungal activity against Candida parapsilosis; details: Lodderomyces parapsilosis
[4] = system: Candida tropicalis; test: Antifungal activity against Candida tropicalis
[5] = system: Aspergillus fumigatus; test: Antifungal activity against Aspergillus fumigatus
[6] = system: Candida; test: Antifungal activity against Candida spp
[7] = system: Trichophyton rubrum; test: Antifungal activity against Trichophyton rubrum
[8] = system: Microsporum; test: Antifungal activity against Microsporum […]
[9] = system: Microsporum canis; test: Antifungal activity against Microsporum canis
[10] = Antifungal activity against Fonsecaea compacta
[11] = system: Aspergillus niger; test: Antifungal activity against Aspergillus niger assessed as growth inhibition
[12] = system: Aspergillus flavus; test: Antifungal activity against Aspergillus flavus assessed as growth inhibition
[13] = system: Aspergillus flavus; test: Antifungal activity against Aspergillus flavus; details: for MIC: Aspergillus flavus
[14] = system: Aspergillus niger; test: Antifungal activity against Aspergillus niger
[15] = system: Pichia kudriavzevii; test: Antifungal activity against Candida krusei
[16] = system: Aspergillus fumigatus; test: Antifungal activity against Aspergillus fumigatus relative to fluconazole
[17] = system: Candida albicans; test: Antifungal activity against Candida albicans relative to fluconazole
[18] = system: Fusarium verticillioides; test: Antifungal activity against Fusarium moniliforme
[19] = system: Lasiodiplodia theobromae; test: Antifungal activity against Botryodiplodia theobromae
[20] = system: Trichoderma viride; test: Antifungal activity against Trichoderma viride
[21] = system: Fusarium oxysporum; test: Antifungal activity against Fusarium oxysporum
[22] = system: Aspergillus fumigatus; test: Antifungal activity against Aspergillus fumigatus assessed as growth inhibition
[23] = system: Mycobacterium tuberculosis; test: Antibacterial activity against Mycobacterium tuberculosis
[24] = system: Staphylococcus aureus; test: Antibacterial activity against Staphylococcus aureus
[25] = system: Sporothrix schenckii; test: Antifungal activity against Sporothrix schenckii
[26] = system: Trichophyton mentagrophytes; test: Antifungal activity against Trichophyton mentagrophytes
[27] = system: Trichophyton tonsurans; test: Antifungal activity against Trichophyton tonsurans

CCCn1cc(-c2ccc(Cl)cc2)c(C(c2ccccc2)n2ccnc2)c1 (configuration not stated)
MIC [1]: 0.016 µg/mL (≈ 0.0426 µM)

CCCCOc1ccccc1N1CCN(CCc2nnn(C(C)C(O)(Cn3cncn3)c3ccc(F)cc3F)n2)CC1 (configuration not stated)
MIC [2]: 1 µg/mL (≈ 1.72 µM)
MIC [1]: 1 µg/mL (≈ 1.72 µM)
MIC [3]: 1 µg/mL (≈ 1.72 µM)
MIC [4]: 1 µg/mL (≈ 1.72 µM)

CCC(C)n1ncn(-c2ccc(N3CCN(c4ccc(OCC5COC(Cn6cncn6)(c6ccc(Cl)cc6Cl)O5)cc4)CC3)cc2)c1=O (configuration not stated) [ITRACONAZOLE]
MIC [5]: 0.0625 µg/mL (≈ 0.0886 µM)
MIC [6]: 2 µg/mL (≈ 2.83 µM)
MIC [7]: 0.0625 µg/mL (≈ 0.0886 µM)
MIC [2]: 0.0625 µg/mL (≈ 0.0886 µM)
MIC [8]: 0.0625 µg/mL (≈ 0.0886 µM)
MIC [3]: 0.0625 µg/mL (≈ 0.0886 µM)
MIC [4]: 0.0625 µg/mL (≈ 0.0886 µM)

CN(CC(O)(Cn1cncn1)c1ccc(F)cc1F)C1CC1 (configuration not stated)
MIC [5]: 0.125 µg/mL (≈ 0.405 µM)
MIC [9]: 0.125 µg/mL (≈ 0.405 µM)
MIC [10]: 0.125 µg/mL (≈ 0.405 µM)
MIC [7]: 0.125 µg/mL (≈ 0.405 µM)
MIC [2]: 0.125 µg/mL (≈ 0.405 µM)
MIC [1]: 0.125 µg/mL (≈ 0.405 µM)
MIC [3]: 0.125 µg/mL (≈ 0.405 µM)
MIC [4]: 0.125 µg/mL (≈ 0.405 µM)

N#CC(=C1CCCCC1)c1nc2cc(Cl)ccc2o1
growth inhibition (GI) [11]: 60%
growth inhibition (GI) [12]: 60%

CC1=NN(c2ccccc2)C(=O)C12C(C#N)C2(c1ccccc1)c1ccccc1 (configuration not stated)
MIC [6]: 25 µg/mL (≈ 66.2 µM)

Nc1nc(=O)[nH]cc1F [FLUCYTOSINE]
MIC [13]: 12.5 µg/mL (≈ 96.8 µM)
MIC ([14]; Aspergillus niger): 12.5 µg/mL (≈ 96.8 µM)
MIC [15]: 12.5 µg/mL (≈ 96.8 µM)
MIC [1]: 12.5 µg/mL (≈ 96.8 µM)
MIC [4]: 12.5 µg/mL (≈ 96.8 µM)

CC1=NN(c2ccccc2)C(=O)C12C(C)(C(=O)OC(C)(C)C)C2(c1ccccc1)c1ccccc1 (configuration not stated)
MIC [6]: 25 µg/mL (≈ 53.6 µM)

CCCCCCCCCC1C=C(CCC2C(OC)OC3COC(c4ccccc4)OC3C2CCC2CN(CCCCCCCCC)N=N2)N=N1 (configuration not stated)
fold change (FC) [16]: 14
fold change (FC) [17]: 14

N#Cc1ccc(N(CC(O)(Cn2cncn2)c2ccc(F)cc2F)C2CC2)cc1 (configuration not stated)
MIC [5]: 0.125 µg/mL (≈ 0.316 µM)
MIC [9]: 0.125 µg/mL (≈ 0.316 µM)
MIC [10]: 0.125 µg/mL (≈ 0.316 µM)
MIC [7]: 0.125 µg/mL (≈ 0.316 µM)
MIC [2]: 0.125 µg/mL (≈ 0.316 µM)
MIC [1]: 0.125 µg/mL (≈ 0.316 µM)
MIC [3]: 0.125 µg/mL (≈ 0.316 µM)
MIC [4]: 0.125 µg/mL (≈ 0.316 µM)

OC(CN1CCN(c2ccc(OCc3ccc(F)cc3)cc2)CC1)(Cn1cncn1)c1ccccc1 (configuration not stated)
MIC [5]: 0.0625 µg/mL (≈ 0.128 µM)
MIC [7]: 0.0625 µg/mL (≈ 0.128 µM)
MIC [2]: 0.0625 µg/mL (≈ 0.128 µM)
MIC [8]: 0.0625 µg/mL (≈ 0.128 µM)
MIC [3]: 0.0625 µg/mL (≈ 0.128 µM)
MIC [4]: 0.0625 µg/mL (≈ 0.128 µM)

O=C(Nc1ccccc1-c1nnc(-c2ccc(O)cc2)o1)c1ccccc1
inhibition zone (IZ) [13]: 11 mm
inhibition zone (IZ) [14]: 15 mm

CC1=NN(c2ccccc2)C(=O)C12C(C)(C(=O)OC(C)C)C2(c1ccccc1)c1ccccc1 (configuration not stated)
MIC [6]: 25 µg/mL (≈ 55.2 µM)

CCN(CC)C(=O)C1C2(C(=O)N(c3ccccc3)N=C2C)C1(c1ccccc1)c1ccccc1 (configuration not stated)
MIC [6]: 25 µg/mL (≈ 55.4 µM)

OCC1CC(c2ccc(-c3ccccc3)cc2)N(c2ccc(F)cc2)O1 (configuration not stated)
MIC [13]: 2.5 µg/mL (≈ 7.16 µM)
MIC [18]: 2.5 µg/mL (≈ 7.16 µM)
MIC [19]: 2.5 µg/mL (≈ 7.16 µM)

CCCCCCCCCCCCCCCc1nnc(CCCCCCC/C=C/CC(O)CCCCCC)o1 (configuration not stated)
inhibition zone (IZ) [14]: 15 mm
inhibition zone (IZ) [20]: 15 mm
inhibition zone (IZ) [1]: 15 mm
inhibition zone (IZ) [21]: 15 mm

NYSTATIN
inhibition zone (IZ) [6]: 20 mm

N=C1SC(c2ccc(Cl)cc2)c2cnn(C(=O)c3ccc(Cl)cc3)c2C1=N (configuration not stated)
growth inhibition (GI) [22]: 61%
growth inhibition (GI) [11]: 60%

NC(=O)c1ccc(COc2ccc(N3CCN(CC(O)(Cn4cncn4)c4ccccc4)CC3)cc2)cc1 (configuration not stated)
MIC [5]: 0.0625 µg/mL (≈ 0.122 µM)
MIC [7]: 0.0625 µg/mL (≈ 0.122 µM)
MIC [2]: 0.0625 µg/mL (≈ 0.122 µM)
MIC [8]: 0.0625 µg/mL (≈ 0.122 µM)
MIC [3]: 0.0625 µg/mL (≈ 0.122 µM)
MIC [4]: 0.0625 µg/mL (≈ 0.122 µM)

Cc1cccc(C2=NN(C(N)=S)C(c3cccnc3)C2)c1 (configuration not stated)
MIC [23]: 6.25 µg/mL (≈ 21.1 µM)
MIC [24]: 128 µg/mL (≈ 432 µM)

COC(=O)Nc1nc2ccccc2[nH]1 [CARBENDAZIM]
growth inhibition (GI) [22]: 92%
growth inhibition (GI) [11]: 90%

O=C1C(CO)=C(Sc2ccccc2)C(=O)c2ccccc21
MIC [5]: 0.78 µg/mL (≈ 2.63 µM)
MIC [25]: 0.78 µg/mL (≈ 2.63 µM)
MIC [9]: 0.78 µg/mL (≈ 2.63 µM)
MIC [26]: 0.78 µg/mL (≈ 2.63 µM)
MIC [2]: 0.78 µg/mL (≈ 2.63 µM)
MIC [1]: 0.78 µg/mL (≈ 2.63 µM)

Clc1ccc(COC(Cn2ccnc2)c2ccc(Cl)cc2Cl)c(Cl)c1 (configuration not stated) [MICONAZOLE]
MIC [27]: 0.2 µg/mL (≈ 0.481 µM)
MIC [6]: 2 µg/mL (≈ 4.81 µM)
MIC [7]: 0.4 µg/mL (≈ 0.961 µM)

NC(=S)N1N=C(c2ccc(Cl)cc2)CC1c1cccnc1 (configuration not stated)
MIC [23]: 6.25 µg/mL (≈ 19.7 µM)
MIC [24]: 128 µg/mL (≈ 404 µM)

Cc1ncc([N+](=O)[O-])n1CC(O)CCl (configuration not stated) [ORNIDAZOLE]
MIC [27]: 0.8 µg/mL (≈ 3.64 µM)

O=C(O)CCSC1=C(CO)C(=O)c2ccccc2C1=O
MIC [5]: 0.78 µg/mL (≈ 2.67 µM)
MIC [25]: 0.78 µg/mL (≈ 2.67 µM)
MIC [9]: 0.78 µg/mL (≈ 2.67 µM)
MIC [26]: 0.78 µg/mL (≈ 2.67 µM)
MIC [2]: 0.78 µg/mL (≈ 2.67 µM)
MIC [1]: 0.78 µg/mL (≈ 2.67 µM)
